Assay results reported in publication PMC7104545, “Unusually persistent Gαi-signaling of the neuropeptide Y2 receptor depletes cellular Gi/o pools and leads to a Gi-refractory state” (Cell Communication and Signaling : CCS, 2020).
“Also recorded” adds a separate entry of the source. Blank lines part the entries; values can stand above or below the molecule they belong to. Where a SMILES comes first, the peptide text is derived from it. [ ]: non-standard residue; d: D form. Ahx = NCCCCCC(=O)O

What was measured:
[1] = target: T1, hY2R (Homo sapiens, UniProt P49146); test: cAMP assay, HEK293 co-transfected hY2R/hY1R, Y2R addressed; type: cell-based
T1 construct: expressed in transfected cells; host or cells: HEK293 (transient transfection, pEYFP-N1 vector)
T1 sequence (P49146 1-381): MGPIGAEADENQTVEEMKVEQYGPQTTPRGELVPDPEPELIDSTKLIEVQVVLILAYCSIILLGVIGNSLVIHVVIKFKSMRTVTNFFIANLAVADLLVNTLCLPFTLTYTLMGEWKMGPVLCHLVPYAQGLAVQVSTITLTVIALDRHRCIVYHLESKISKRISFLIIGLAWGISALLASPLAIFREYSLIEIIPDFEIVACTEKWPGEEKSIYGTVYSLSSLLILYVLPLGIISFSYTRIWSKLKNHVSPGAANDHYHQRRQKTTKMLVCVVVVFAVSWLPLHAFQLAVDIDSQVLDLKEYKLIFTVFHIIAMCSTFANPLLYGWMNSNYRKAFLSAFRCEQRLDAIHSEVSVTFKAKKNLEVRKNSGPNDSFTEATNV
Method: (§1) HEK293 cells were grown in 25 cm^2 culture flask up to 70–80% confluence in a humidified atmosphere at 37 °C and 5% CO2. Co-transfection of 3000 ng pGL4.29[luc2P/CRE/Hygro] (Promega) plasmid and 3000 ng plasmid encoding for the respective receptor was performed using Metafectene® Pro (Biontex Laboratories GmbH) according to the manufacturer’s protocol. One-day post-transfection cells were seeded into white poly-D-lysine covert 96-well plates (Greiner Bio-one) and incubated overnight at 37 °C. For pertussis toxin experiments, medium was supplied with certain concentration (100 ng/ml, 250 ng/ml, 500 ng/ml) of pertussis toxin (Sigma). Two-day post-transfection cAMP experiments were performed with the help of ONE-Glo substrate (Promega), allowing luminescence measurement with the Tecan Infinite M200. […] For recycling, cells were incubated for 60 min with DMEM supplemented with 100 μg/ml CHX (Merck/Calbiochem®). […] As a positive control only 5 μM forskolin were added to the wells. After incubation, medium was exchanged by 30 μl fresh DMEM (RT). 30 μl ONE-Glo substrate was added and after 5 min of incubation the cAMP level was measured by detecting the luminescence. For co-transfection experiments the transfection of two receptors simultaneously and pGL4.29[luc2P/CRE/Hygro] plasmid were performed in a ratio 1:1:1, keeping the total amount of 6000 ng. […] The second stimulation was performed in a peptide concentration range, addressing the respective receptor that was missed in the first round.

[2] = target: T2, neuropeptide Y2R (endogenous in SH-SY5Y cells) (Homo sapiens, UniProt P49146); test: Ca^2+-flux assay, SH-SY5Y cells transfected with chimeric Gqi; type: cell-based
T2 construct: SH-SY5Y cells that endogenously expressing Y2R; endogenous in cells; host or cells: SH-SY5Y (transiently transfected with chimeric Gqi protein only)
T2 sequence (P49146 1-381): T1 sequence (P49146 1-381)
Method: (§2) HEK293 cells were grown in 25 cm^2 culture flask up to 70–80% confluence in a humidified atmosphere at 37 °C and 5% CO2. Co-transfection of 800 ng plasmid encoding the GαΔ6qi4myr protein and 3200 ng plasmid encoding for the Y2R fused C-terminally to eYFP was performed by using Metafectene® Pro (Biontex Laboratories GmbH) according to manufacturer’s protocol. One-day post transfection, cells were re-seeded (100.000 cells/well) into a black poly-D-lysine covert 96-well plates (Greiner Bio-one) and incubated overnight at 37 °C. Two-days post transfection Ca^2+ experiments were performed with the help of the FLIPR® Calcium Assay Kit (Molecular Devices). […] For recycling, cells were incubated for 60 min with assay buffer (20 mM HEPES, 2.5 mM Probenecid in HBSS, pH 7.5) supplemented with 100 μg/ml CHX (Merck/Calbiochem®) and 1 μM Fluor-2-AM staining dye. […] For the GαΔ6qi4myr overexpression experiments, the transfection ratio between receptor DNA and G protein DNA was varied from the initial concentration 4:1, using a total DNA amount of 4000 ng. By keeping the G protein amount equal to 800 ng, the resulting discrepancy was filled with pcDNA3.

[3] = system: adenylyl cyclase; test: Impact of Ca^2+ and PKC on cellular cAMP level, HEK293-hY2R-eYFP; type: cell-based; details: 10 µM PKC inhibitor 30 min prior to stimulation with peptide; n≥2
[4] = target: T3, human neuropeptide Y2 receptor (hY2R) (Homo sapiens, UniProt P49146); parameters: expressed in transfected cells; host or cells: HEK293 (transient transfection, pEYFP-N1 vector); details: ref [29]; cited from earlier work
T3 sequence (P49146 1-381): T1 sequence (P49146 1-381)
Source text: Contrary to the obviously low arrestin binding affinity, the unoccupied receptor apparently exists in a conformation that strongly favors G protein coupling. Kaiser et al. recently reported two different affinity states concerning Y2R binding properties. […].

[5] = target: T3, human neuropeptide Y2 receptor (hY2R); test: cAMP reporter gene assay, HEK293-hY2R; type: cell-based; parameters: expressed in transfected cells; host or cells: HEK293 (transient transfection, pEYFP-N1 vector)
Method: as §1

[6] = system: HEK293-HA-hY2R-eYFP cells; test: Intracellular fate of TAMRA-NPY (live cell microscopy, lysosomal stain, EEA1 immunostaining); type: cell-based, human
Method: HEK293-HA-hY2R-eYFP cells were seeded on poly-D-lysine coated coverslips (500.000 /well). […] Gradually preparation of all samples was performed in 10 min intervals of 2% paraformaldehyde (PFA)/PBS on ice, 2% PFA/PBS at RT and finally 4% PFA/PBS at RT. Samples were blocked and permeabilized with 10% BSA/0.1% TritonX-100/PBS for 1 h at RT. Incubation with anti-EEA1 (Santa Cruz, sc-33,585) (1:100) in 1% BSA/0.01% TritonX-100/PBS occurred overnight at 4 °C. The next day, samples were treated with anti-rabbit-AF350 (InvitrogenTM) (1:400) in 1% BSA/0.01% TritonX- 100/PBS for 2 h at RT and mounted with Fluoromount-G®.

[7] = target: T3, human neuropeptide Y2 receptor (hY2R); test: TAMRA-NPY uptake in second stimulation, live cell microscopy (HEK293-HA-Y2R-eYFP); type: cell-based; parameters: expressed in transfected cells; host or cells: HEK293 (transient transfection, pEYFP-N1 vector); details: n ≥ 3
Method: HEK293 or HEK293-HA-Y2R-eYFP were re-seeded (150.00/well) into sterile poly-D-lysine covered μ-slide 8 wells (Ibidi) and grown in a humidified atmosphere at 37 °C and 5% CO2. For transfection, cells were cultured up to 70–80% confluency and subsequently transfected with 1.0 μg total DNA using Lipofectamine® 2000 transfection reagent (Invitrogen) according to the manufacturer’s protocol. For single transfection in empty HEK293 cells 1.0 μg of HA-Y2R-eYFP-N1 plasmid DNA was used. At the experimental day cells were starved in Opti-MEM® reduced serum medium (Gibco®) containing Hoechst33342 (Sigma) for 30 min at 37 °C. LysoTracker®Blue with a final concentration of 1 μM was used for visualization of the lysosomes. […] For recycling studies, cells were washed twice with acidic wash buffer (50 mM glycine, 100 mM NaCl, pH 3.0) and neutralized once with Hank’s balanced salt solution (HBSS; PAA), followed by a recovery period for 60 min in ligand-free media supplemented with 100 μg/ml cycloheximide (CHX; Merck/Calbiochem®) and with or without 20 mM NH4Cl as an expression inhibitor and recycling inhibitor respectively. […] All microscopy images were obtained using the AxioObserver.Z1 microscope equipped with an ApoTome imaging system (Zeiss, Jena). Within one experimental setup, all images were taken using a fixed exposure time for the single fluorescence channels.
Microscopy pictures were processed with the standard software Axio vision 4.8 and exported as an 8 Bit TIFF file (Tagged Image File Format). The open access software Image J was applied for the analysis of the pictures. For determination of mean cell surface fluorescence (MCSF) ten nonadjacent cells per image were measured using the segmented line function. Calculation of the relative TAMRA fluorescence, the Raw Intensity Density was measured under distinct conditions. The particular background fluorescence of each image was subtracted after every evaluation. Since this program uses the single gray levels for evaluation, the calculated values were evaluated retroactively as relative fluorescence intensity and analyzed with the statistical program GraphPad Prism.

[8] = system: hY4R; test: Ca^2+-flux assay, HEK293 co-transfected hY2R/hY4R, PP to address Y4R; type: cell-based, human; details: 1 μM NPY first, acidic wash, 60 min recovery; Fig. S3B; n≥2
Method: as §2

[9] = system: melanocortin 1 receptor (MCR1); test: cAMP assay, HEK293 co-transfected hY2R/melanocortin 1 receptor; type: cell-based; details: PTX present; first stimulation 1 μM NPY
Method: HEK293 cells were grown in 25 cm^2 culture flask up to 70–80% confluence in a humidified atmosphere at 37 °C and 5% CO2. Co-transfection of 3000 ng pGL4.29[luc2P/CRE/Hygro] (Promega) plasmid and 3000 ng plasmid encoding for the respective receptor was performed using Metafectene® Pro (Biontex Laboratories GmbH) according to the manufacturer’s protocol. One-day post-transfection cells were seeded into white poly-D-lysine covert 96-well plates (Greiner Bio-one) and incubated overnight at 37 °C. For pertussis toxin experiments, medium was supplied with certain concentration (100 ng/ml, 250 ng/ml, 500 ng/ml) of pertussis toxin (Sigma). Two-day post-transfection cAMP experiments were performed with the help of ONE-Glo substrate (Promega), allowing luminescence measurement with the Tecan Infinite M200. […] For recycling, cells were incubated for 60 min with DMEM supplemented with 100 μg/ml CHX (Merck/Calbiochem®). […] As a positive control only 5 μM forskolin were added to the wells. After incubation, medium was exchanged by 30 μl fresh DMEM (RT). 30 μl ONE-Glo substrate was added and after 5 min of incubation the cAMP level was measured by detecting the luminescence. For co-transfection experiments the transfection of two receptors simultaneously and pGL4.29[luc2P/CRE/Hygro] plasmid were performed in a ratio 1:1:1, keeping the total amount of 6000 ng. […]

[10] = system: HEK293-hY2R cells; test: Cell toxicity by microscopy (cell morphology); type: cell-based, human; details: PTX 250 ng/ml

Molecule: CN(C)CCCn1cc(C2=C(c3c[nH]c4ccccc34)C(=O)NC2=O)c2ccccc21 [Bisindolylmaleimide I]
- effect of PKC inhibitor on adenylyl cyclase inhibition [3]: abolished inhibitory effect of adenylyl cyclases and Y2R downstream signaling

Molecule: Nc1nc2c(ncn2[C@@H]2O[C@H](COP(=O)(O)OP(=O)(O)OP(O)(O)=S)[C@@H](O)[C@H]2O)c(=O)[nH]1 [GTPγS, Guanosine 5′-O-[gamma-thio] triphosphate]
- effect of GTPγS on total binding [4]: loss in total binding

Molecule: TAMRA-NPY: fluorescent NPY derivative, 5-carboxytetramethylrhodamine (TAMRA)-NPY
- localisation after 60 min recycling period ([6]; 100 nM TAMRA-NPY, lysosomal marker LysoTracker Blue): degradation in lysosomes; also recorded: co-localized with the lysosomal marker
- localisation in early endosomes ([6]; EEA1 immunostaining): intracellular accumulation of TAMRA-NPY in early and sorting endosomes
- co-internalization with receptor ([6]; TAMRA-NPY 60 min, 37 °C): Co-internalization of the ligand-receptor-complex was observed
- TAMRA-NPY internalization in second stimulation, comparison 0 RE vs 60 RE ± NH4Cl ([7]; 1 μM NPY first, then 100 nM TAMRA-NPY 60 min): no difference in TAMRA internalization
- TAMRA-NPY uptake, 0 RE ([7]; 1 μM NPY, acidic wash, direct second stimulation 100 nM TAMRA-NPY 60 min, 37 °C, control = 100%): 45 ± 5%
- TAMRA-NPY uptake, 60 RE ([7]; 1 μM NPY, wash, 60 min recovery with CHX, then 100 nM TAMRA-NPY 60 min, control = 100%): 49 ± 4%
- TAMRA-NPY uptake, 60 RE + NH4Cl ([7]; as 60 RE with 20 mM NH4Cl during recovery, control = 100%): 48 ± 46%

Molecule: pertussis toxin [PTX]
- effect on inhibitory effect of Y2R (MCR1/Y2R cells) [9]: completely abolished; also recorded: abolishing the slight inhibitory effect
- cell toxicity (cell morphology) [10]: no differences in cell morphology were observed
- effect on maximal forskolin-induced cAMP response after NPY ([5]; PTX 250 ng/ml, treatment of cells with NPY first): AC-activity is rescued; also recorded: clearly rescued the maximal cAMP response; also recorded: adenylyl cyclase was still activatable by forskolin
- effect of varying PTX concentrations on AC-activity ([5]; PTX 100, 250, 500 ng/ml, compared to control curve (Fig. 3f)): caused inhibition of AC-activity compared to control curve

Further lines, with some results ahead:

- Emax ([1]; HEK293, second stimulation after 1 μM F^7,P^34-NPY and 60 min recovery, Ahx^5–24-NPY control curve = 100%): 74%
Molecule: CC[C@H](C)[C@H](NC(=O)[C@H](Cc1ccc(O)cc1)NC(=O)[C@H](Cc1c[nH]cn1)NC(=O)[C@H](CCCNC(=N)N)NC(=O)CCCCCNC(=O)[C@H](CCCCN)NC(=O)[C@H](CO)NC(=O)[C@@H]1CCCN1C(=O)[C@@H](N)Cc1ccc(O)cc1)C(=O)N[C@@H](CC(N)=O)C(=O)N[C@@H](CC(C)C)C(=O)N[C@H](C(=O)N[C@H](C(=O)N[C@@H](CCCNC(=N)N)C(=O)N[C@@H](CCC(N)=O)C(=O)N[C@@H](CCCNC(=N)N)C(=O)N[C@@H](Cc1ccc(O)cc1)C(N)=O)[C@@H](C)O)[C@@H](C)CC [Ahx^5–24-NPY] (H-YPSK[Ahx]RHYINLITRQRY-NH2)

- EC50 ([1]; Y1R/Y2R co-transfected HEK293, no first stimulation): 14 nM
- EC50 ([1]; second stimulation after 1 μM F^7,P^34-NPY and 60 min recovery): 28 nM
- EC50 ([2]; no first stimulation, SH-SY5Y + Gqi, n ≥ 3): 41.9 nM
Molecule: CC[C@H](C)[C@H](NC(=O)[C@H](Cc1ccc(O)cc1)NC(=O)[C@H](Cc1cnc[nH]1)NC(=O)[C@H](CCCNC(=N)N)NC(=O)CCCCCNC(=O)[C@H](CCCCN)NC(=O)[C@H](CO)NC(=O)[C@@H]1CCCN1C(=O)[C@@H](N)Cc1ccc(O)cc1)C(=O)N[C@@H](CC(N)=O)C(=O)N[C@@H](CC(C)C)C(=O)N[C@H](C(=O)N[C@H](C(=O)N[C@@H](CCCNC(=N)N)C(=O)N[C@@H](CCC(N)=O)C(=O)N[C@@H](CCCNC(=N)N)C(=O)N[C@@H](Cc1ccc(O)cc1)C(N)=O)[C@@H](C)O)[C@@H](C)CC [Ahx^5–24-NPY] (H-YPSK[Ahx]RHYINLITRQRY-NH2)

- increase of baseline intracellular cAMP by forskolin ([5]; 5 μM forskolin, Y2R-expressing HEK293, without NPY): ~ 10 fold
Molecule: C=C[C@@]1(C)CC(=O)[C@]2(O)[C@@]3(C)[C@@H](O)CCC(C)(C)[C@@H]3[C@H](O)[C@H](OC(C)=O)[C@@]2(C)O1 [forskolin]

- Ca^2+ activity in SH-SY5Y ([2]; SH-SY5Y, endogenous background, n≥3): no activity
Molecule: pancreatic polypeptide [PP]
- Ca^2+ response of PP after first stimulation with NPY [8]: obvious loss in activity, since no Ca^2+response was measured
